Values quoted from earlier work, collected in patent US20160143979A1, “Long Pepper Extract an Effective Anticancer Treatment” (priority 2014, published 2016).

Test system: cancer cells
Conditions: previous study

COc1cc(/C=C/C(=O)N2CCC=CC2=O)cc(OC)c1OC [piperlongumine]
concentration required for significant cell death induction: 10
